In the OligoGym collection:
“And” between values parts separate entries of the source, which are not always exact repeats. Identical values can stand only once. After the bases stand the sugars from the 5' end (letter, count) and the backbone: PS all phosphorothioate, else s phosphorothioate and o phosphodiester by linkage. HELM strings list units from the 5' end as sugar, base in round brackets, then linkage (d deoxyribose, r ribose, m 2'-O-methyl, p phosphodiester). Methylation of C is not given here. [mop] = methoxypropylphosphonate linkage; [moe] = 2'-O-(2-methoxyethyl) (MOE); [cEt] = constrained ethyl (cEt); [sp] = phosphorothioate linkage; e = 2'-O-(2-methoxyethyl) (MOE); k = constrained ethyl (cEt); d = 2'-deoxy (DNA)

Assays:
HBV = conditions: ASO
IRF5 = conditions: ASO

| Substance | target mRNA inhibition (HBV; HepG2, 0.07 µM) | target mRNA inhibition (IRF5; KARPAS-229, 4 µM) | further results |
| --- | --- | --- | --- |
| RNA1{[moe](A)[sp].[moe](C)[sp].[moe](G)[sp].[moe](T)[sp].d(G)[sp].d(C)[sp].d(A)[sp].d(G)[sp].d(A)[sp].d(G)[sp].d(G)[sp].d(T)[sp].d(G)[sp].[moe](A)[sp].[moe](A)[sp].[moe](G)[sp].[moe](C)}$$$$V2.0 | 62% and 57% | – | – |
| RNA1{[moe](T)[sp].[moe](T)[sp].[moe](A)[sp].[moe](T)[sp].[moe](G)[sp].d(C)[sp].d(C)[sp].d(T)[sp].d(A)[sp].d(C)[sp].d(A)[sp].d(G)[sp].d(C)[sp].d(C)[sp].[moe](T)[sp].[moe](C)}$$$$V2.0 | 53% and 42% | – | – |
| RNA1{[moe](G)[sp].[cEt](A)[sp].d(A)[sp].d(G)[sp].d(C)[sp].d(G)[sp].d(A)[sp].d(A)[sp].d(G)[sp].d(T)[sp].d(G)[sp].d(C)[sp].[cEt](A)[sp].[moe](C)[sp].[cEt](A)[sp].[moe](C)}$$$$V2.0 | 74% and 76% | – | – |
| RNA1{[moe](A)[sp].[cEt](C)[sp].[cEt](T)[sp].d(G)[sp].d(A)[sp].d(A)[sp].d(C)[sp].d(A)[sp].d(A)[sp].d(A)[sp].d(T)[sp].d(G)[sp].d(G)[sp].[cEt](C)[sp].[cEt](A)[sp].[moe](C)}$$$$V2.0 | 67% and 64% | – | – |
| RNA1{[moe](A)[sp].[moe](C)[sp].[moe](C)[sp].[moe](A)[sp].[moe](C)[sp].d(T)[sp].d(G)[sp].d(A)[sp].d(A)[sp].d(C)[sp].d(A)[sp].d(A)[sp].d(A)[sp].d(T)[sp].[moe](G)[sp].[moe](G)[sp].[moe](C)}$$$$V2.0 | 59% and 61% | – | – |
| RNA1{[moe](G)[sp].[moe](T)[sp].[moe](G)[sp].[moe](C)[sp].[moe](A)[sp].d(G)[sp].d(A)[sp].d(G)[sp].d(G)[sp].d(T)[sp].d(G)[sp].d(A)[sp].d(A)[sp].d(G)[sp].[moe](C)[sp].[moe](G)}$$$$V2.0 | 57% and 51% | – | – |
| RNA1{[moe](A)[sp].[moe](C)[sp].[moe](G)[sp].d(T)[sp].d(G)[sp].d(C)[sp].d(A)[sp].d(G)[sp].d(A)[sp].d(G)[sp].d(G)[sp].d(T)[sp].d(G)[sp].[cEt](A)[sp].[cEt](A)[sp].[cEt](G)}$$$$V2.0 | 74% and 78% | – | – |
| RNA1{[moe](A)[sp].[moe](A)[sp].[moe](C)[sp].d(C)[sp].d(A)[sp].d(C)[sp].d(T)[sp].d(G)[sp].d(A)[sp].d(A)[sp].d(C)[sp].d(A)[sp].[moe](A)[sp].[moe](A)[sp].[moe](T)[sp].[moe](G)[sp].[moe](G)}$$$$V2.0 | 57% and 51% | – | – |
| RNA1{[moe](A)[sp].[moe](G)[sp].[moe](A)[sp].[moe](G)[sp].d(A)[sp].d(A)[sp].d(G)[sp].d(T)[sp].d(C)[sp].d(C)[sp].d(A)[sp].d(C)[sp].d(C)[sp].[moe](A)[sp].[moe](C)[sp].[moe](G)[sp].[moe](A)}$$$$V2.0 | 17% | – | – |
| RNA1{[moe](A)[sp].[moe](C)[sp].[moe](G)[sp].[moe](G)[sp].d(G)[sp].d(C)[sp].d(A)[sp].d(A)[sp].d(C)[sp].d(A)[sp].d(T)[sp].d(A)[sp].d(C)[sp].[moe](C)[sp].[moe](T)[sp].[moe](T)}$$$$V2.0 | 50% and 54% | – | – |
| RNA1{[moe](A)[sp].[moe](T)[sp].[moe](G)[sp].[moe](A)[sp].d(G)[sp].d(G)[sp].d(C)[sp].d(A)[sp].d(T)[sp].d(A)[sp].d(G)[sp].d(C)[sp].d(A)[sp].[moe](G)[sp].[moe](C)[sp].[moe](A)}$$$$V2.0 | 54% and 49% | – | – |
| RNA1{[moe](G)[sp].[moe](A)[sp].d(G)[sp].d(T)[sp].d(T)[sp].d(C)[sp].d(C)[sp].d(G)[sp].d(C)[sp].d(A)[sp].d(G)[sp].[moe](T)[sp].[moe](A)[sp].[moe](T)[sp].[moe](G)[sp].[moe](G)[sp].[moe](A)}$$$$V2.0 | 78% and 66% | – | – |
| RNA1{[moe](A)[sp].[moe](C)[sp].[moe](T)[sp].[moe](G)[sp].[moe](G)[sp].[moe](A)[sp].d(G)[sp].d(C)[sp].d(C)[sp].d(A)[sp].d(C)[sp].d(C)[sp].d(A)[sp].d(G)[sp].d(C)[sp].[moe](A)[sp].[moe](G)}$$$$V2.0 | 66% and 46% | – | – |
| RNA1{[moe](T)[sp].[moe](T)[sp].d(A)[sp].d(T)[sp].d(G)[sp].d(C)[sp].d(C)[sp].d(T)[sp].d(A)[sp].d(C)[sp].d(A)[sp].[moe](G)[sp].[moe](C)[sp].[moe](C)[sp].[moe](T)[sp].[moe](C)}$$$$V2.0 | 44% and 46% | – | – |
| RNA1{[moe](G)[sp].[moe](T)[sp].[moe](G)[sp].[moe](C)[sp].[moe](A)[sp].d(G)[sp].d(A)[sp].d(G)[sp].d(G)[sp].d(T)[sp].d(G)[sp].d(A)[sp].d(A)[sp].d(G)[sp].[moe](C)[sp].[moe](G)[sp].[moe](A)}$$$$V2.0 | 68% and 62% | – | – |
| RNA1{[moe](A)[sp].[cEt](G)[sp].d(G)[sp].d(T)[sp].d(G)[sp].d(A)[sp].d(A)[sp].d(G)[sp].d(C)[sp].d(G)[sp].d(A)[sp].d(A)[sp].[cEt](G)[sp].[moe](T)[sp].[cEt](G)[sp].[moe](C)}$$$$V2.0 | 78% and 85% | – | target mRNA inhibition (HBV; HepG2, 0.0092593 µM): 12%; target mRNA inhibition (HBV; HepG2, 0.0277778 µM): 36%; target mRNA inhibition (HBV; HepG2, 0.0833333 µM): 67%; target mRNA inhibition (HBV; HepG2, 0.25 µM): 80% |
| RNA1{[moe](T)[sp].[moe](A)[sp].[moe](T)[sp].[moe](G)[sp].[moe](C)[sp].d(C)[sp].d(T)[sp].d(A)[sp].d(C)[sp].d(A)[sp].d(G)[sp].d(C)[sp].d(C)[sp].d(T)[sp].[moe](C)[sp].[moe](C)}$$$$V2.0 | 47% and 42% | – | – |
| CTAAACCATTCTATGC (sugars k3 d10 k3, PS) | – | 0% | – |
| GCTGTCACATCTCCAC (sugars kddddddddddkekek, PS) | – | 17% | – |
| ACCATTCTATGCCTTT (sugars k3 d10 k3, PS) | – | 70% and 74% | target mRNA inhibition (IRF5; KARPAS-229, 0.44444 µM): 44%; target mRNA inhibition (IRF5; KARPAS-229, 1.33333 µM): 60%; target mRNA inhibition (IRF5; KARPAS-229, 12 µM): 86% |
| CCTTCTGCAGGGAGTC (sugars kkkdddddddddkeke, PS) | – | 1% | – |
| ATGAGTCATGGGCTGA (sugars k3 d10 k3, PS) | – | 21% | – |
| CATTCCATATACACAC (sugars kkkddddddddkdkdk, PS) | – | 40% | – |
| CGGTCTTTGAGGTCTG (sugars kkkdddddddddkeke, PS) | – | 38% | – |

| Substance | target mRNA inhibition (HBV; HepG2, 0.07 µM) | target mRNA inhibition (IRF5; KARPAS-229, 4 µM) | further results |
| --- | --- | --- | --- |
| CCAATTTTGCATTCCA (sugars kkddddddddddkeke, PS) | – | 75% and 57% | target mRNA inhibition (IRF5; KARPAS-229, 0.44444 µM): 47%; target mRNA inhibition (IRF5; KARPAS-229, 1.33333 µM): 66%; target mRNA inhibition (IRF5; KARPAS-229, 12 µM): 82% |
| TGTCTAGTGTCATGGA (sugars k2 d9 e3 k2, linkages s3 [mop]1 s11) | – | – | target mRNA inhibition (IRF5; A-431, 0.00412 µM): 0%; target mRNA inhibition (IRF5; A-431, 0.01225 µM): 15%; target mRNA inhibition (IRF5; A-431, 0.03704 µM): 10%; target mRNA inhibition (IRF5; A-431, 0.11111 µM): 39%; target mRNA inhibition (IRF5; A-431, 0.33333 µM): 58%; target mRNA inhibition (IRF5; A-431, 1 µM): 75% |
| TGAGTCTCAAACCAGG (sugars kkddddddddddkeke, PS) | – | 7% | – |
| GGTGTATTTCCCTGTC (sugars kekdddddddddeekk, PS) | – | 5% | – |
| TGTCTAGTGTCATGGA (sugars kkdkdddddddeeekk, PS) | – | – | target mRNA inhibition (IRF5; A-431, 0.00412 µM): 0%; target mRNA inhibition (IRF5; A-431, 0.01225 µM): 5%; target mRNA inhibition (IRF5; A-431, 0.03704 µM): 6%; target mRNA inhibition (IRF5; A-431, 0.11111 µM): 24%; target mRNA inhibition (IRF5; A-431, 0.33333 µM): 23%; target mRNA inhibition (IRF5; A-431, 1 µM): 41% |
| CATTCCATATACACAC (sugars kkkdddddddddkeke, PS) | – | 28% | – |
| GGTCTGGCCCTTTTGG (sugars kkdddddddddkekek, PS) | – | 3% | – |
| GATGGTGTTATCTCCG (sugars k2 d8 e4 k2, PS) | – | 0% | – |
| GTCTTGACCTCCCGCT (sugars kkdddddddddkdkdk, PS) | – | 46% | – |
| GGTTCTTGGACTCTCA (sugars kkkdddddddddkeke, PS) | – | 48% and 67% | target mRNA inhibition (IRF5; KARPAS-229, 0.44444 µM): 41%; target mRNA inhibition (IRF5; KARPAS-229, 1.33333 µM): 56%; target mRNA inhibition (IRF5; KARPAS-229, 12 µM): 81% |
| CTGACACAGGCGGATG (sugars kddddddddddkekek, PS) | – | 0% | – |
| GGAGTGAGACGAGCAA (sugars k3 d9 k3 e1, PS) | – | 33% | – |
| CGGTCTTTGAGGTCTG (sugars kdddddddddkekeke, PS) | – | 40% | – |
| CATCAGCTTTCTTGTC (sugars k3 d10 k3, PS) | – | 28% | – |
| GCTTGGTCTTGACCTC (sugars kkddddddddkekekk, PS) | – | 21% | – |
| ATGAGTCATGGGCTGA (sugars kkkddddddddkdkdk, PS) | – | 0% | – |
| TGCACTGACACAGGCG (sugars k2 d9 e3 k2, PS) | – | 18% | – |
| CTTGGTCTTGACCTCC (sugars kkkdddddddddkeke, PS) | – | 15% | – |
| CTGTCACATCTCCACA (sugars k2 d9 e3 k2, PS) | – | 10% | – |
| CCCAATGCAACATCCA (sugars kkdddddddddkekek, PS) | – | 0% | – |
| TTATCTCCGTCCTGGC (sugars kkddddddddddkeke, PS) | – | 0% | – |
| GGAGTGAGACGAGCAA (sugars kkddddddddkekekk, PS) | – | 38% | – |
| GGGCACAGCGCAGGTT (sugars kkddddddddkekekk, PS) | – | 61% and 66% | target mRNA inhibition (IRF5; KARPAS-229, 0.44444 µM): 15%; target mRNA inhibition (IRF5; KARPAS-229, 1.33333 µM): 32%; target mRNA inhibition (IRF5; KARPAS-229, 12 µM): 76% |
| TGTGACTGTATTACCT (sugars k3 d10 k3, PS) | – | 81% and 66% | target mRNA inhibition (IRF5; KARPAS-229, 0.44444 µM): 38%; target mRNA inhibition (IRF5; KARPAS-229, 1.33333 µM): 44%; target mRNA inhibition (IRF5; KARPAS-229, 12 µM): 78% |
